Values quoted from earlier work in patent US20210244720A1, “Therapeutic Tyrosine Kinase Inhibitors for Relapsing Multiple Sclerosis (RMS)” (Genzyme Corporation, priority 2020, published 2021).

Tested on: RMS patients
Conditions: from Week 12; cited from earlier work

Structure (SMILES): C=CC(=O)N1CCC(CNc2ncnc(N)c2-c2ccc(Oc3ccccc3)cc2)CC1 [evobrutinib]
- reduction of new Gd-enhancing T1 lesions: meaningful reduction
